Test results published in ChEMBL document CHEMBL1201862, “PubChem BioAssay data set” (2004).
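Cells were grown in 96-well plates and exposed to each compound for 48 hours at five concentrations; endpoints were interpolated linearly between bracketing concentrations, or set to the highest concentration if not reached. GI50 = concentration required for 50% inhibition of growth.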 Activity calls are given as the source filed them. No stated cut-off is given here; in the data, active = GI50 up to about 1.1 µM and inactive = higher.

What was measured:
Test in all cases: NCI-60 cell line screen, 48 h
SF-295 = tested on: SF-295
A498 = tested on: A498
SR = tested on: SR
EKVX = tested on: EKVX
OVCAR-8 = tested on: OVCAR-8
LXFL 529 = tested on: LXFL 529
OVCAR-5 = tested on: OVCAR-5
U-251 = tested on: U-251
UO-31 = tested on: UO-31
SF-268 = tested on: SF-268
K562 = tested on: K562
M19-MEL = tested on: M19-MEL
HL-60 = tested on: HL-60
SNB-19 = tested on: SNB-19
HT-29 = tested on: HT-29
RPMI-8226 = tested on: RPMI-8226
RXF 393 = tested on: RXF 393
SW-620 = tested on: SW-620
LOX IMVI = tested on: LOX IMVI
MOLT-4 = tested on: MOLT-4
SN12C = tested on: SN12C
M14 = tested on: M14
IGROV-1 = tested on: IGROV-1
A549 = tested on: A549
SNB-78 = tested on: SNB-78
SK-MEL-5 = tested on: SK-MEL-5
HCT-15 = tested on: HCT-15
KM-20L2 = tested on: KM-20L2
SF-539 = tested on: SF-539
UACC-257 = tested on: UACC-257
786-0 = tested on: 786-0
UACC-62 = tested on: UACC-62
OVCAR-3 = tested on: OVCAR-3
ACHN = tested on: ACHN
SNB-75 = tested on: SNB-75
NCI-H460 = tested on: NCI-H460
NCI-H522 = tested on: NCI-H522
SK-MEL-28 = tested on: SK-MEL-28
CAKI-1 = tested on: CAKI-1
OVCAR-4 = tested on: OVCAR-4
HCC 2998 = tested on: HCC 2998
HCT-116 = tested on: HCT-116
HOP-62 = tested on: HOP-62
SK-MEL-2 = tested on: SK-MEL-2
SK-OV-3 = tested on: SK-OV-3
KM12 = tested on: KM12
DMS-273 = tested on: DMS-273
Malme-3M = tested on: Malme-3M
NCI-H226 = tested on: NCI-H226
DLD-1 = tested on: DLD-1
HOP-18 = tested on: HOP-18
HOP-92 = tested on: HOP-92
CCRF-CEM = tested on: CCRF-CEM
TK-10 = tested on: TK-10
NCI-H23 = tested on: NCI-H23
COLO 205 = tested on: COLO 205

Structure (SMILES): CCC(=O)Nc1nc2c(ncn2C2OC(COC(=O)CC)C(OC(=O)CC)C2OC(=O)CC)c(=O)[nH]1 (stereo not drawn)
- GI50 (SF-295): > 100 µM (inactive)
- GI50 (A498): > 100 µM (inactive)
- GI50 (SR): > 100 µM (inactive)
- GI50 (EKVX): > 100 µM (inactive)
- GI50 (OVCAR-8): > 100 µM (inactive)
- GI50 (LXFL 529): > 100 µM (inactive)
- GI50 (OVCAR-5): > 100 µM (inactive)
- GI50 (U-251): > 100 µM (inactive)
- GI50 (UO-31): > 100 µM (inactive)
- GI50 (SF-268): > 100 µM (inactive)
- GI50 (K562): > 100 µM (inactive)
- GI50 (M19-MEL): > 100 µM (inactive)
- GI50 (HL-60): 46.6 µM (inactive)
- GI50 (SNB-19): > 100 µM (inactive)
- GI50 (HT-29): > 100 µM (inactive)
- GI50 (RPMI-8226): > 100 µM (inactive)
- GI50 (RXF 393): > 100 µM (inactive)
- GI50 (SW-620): > 100 µM (inactive)
- GI50 (LOX IMVI): > 100 µM (inactive)
- GI50 (MOLT-4): > 100 µM (inactive)
- GI50 (SN12C): > 100 µM (inactive)
- GI50 (M14): > 100 µM (inactive)
- GI50 (IGROV-1): > 100 µM (inactive)
- GI50 (A549): > 100 µM (inactive)
- GI50 (SNB-78): > 100 µM (inactive)
- GI50 (SK-MEL-5): > 100 µM (inactive)
- GI50 (HCT-15): > 100 µM
- GI50 (KM-20L2): > 100 µM (inactive)
- GI50 (SF-539): > 100 µM (inactive)
- GI50 (UACC-257): > 100 µM (inactive)
- GI50 (786-0): > 100 µM (inactive)
- GI50 (UACC-62): > 100 µM (inactive)
- GI50 (OVCAR-3): > 100 µM (inactive)
- GI50 (ACHN): > 100 µM (inactive)
- GI50 (SNB-75): > 100 µM (inactive)
- GI50 (NCI-H460): > 100 µM (inactive)
- GI50 (NCI-H522): > 100 µM (inactive)
- GI50 (SK-MEL-28): > 100 µM (inactive)
- GI50 (CAKI-1): > 100 µM (inactive)
- GI50 (OVCAR-4): > 100 µM (inactive)
- GI50 (HCC 2998): > 100 µM (inactive)
- GI50 (HCT-116): > 100 µM (inactive)
- GI50 (HOP-62): > 100 µM (inactive)
- GI50 (SK-MEL-2): > 100 µM (inactive)
- GI50 (SK-OV-3): > 100 µM (inactive)
- GI50 (KM12): > 100 µM (inactive)
- GI50 (DMS-273): > 100 µM (inactive)
- GI50 (Malme-3M): > 100 µM (inactive)
- GI50 (NCI-H226): > 100 µM (inactive)

Structure (SMILES): Cc1nn2c3c(nnc2c1C#N)C(=O)NN=C(N)S3
- GI50 (SF-295): > 100 µM (inactive)
- GI50 (DLD-1): > 100 µM (inactive)
- GI50 (SR): > 100 µM (inactive)
- GI50 (EKVX): > 100 µM (inactive)
- GI50 (OVCAR-8): > 100 µM (inactive)
- GI50 (LXFL 529): > 100 µM (inactive)
- GI50 (OVCAR-5): > 100 µM (inactive)
- GI50 (U-251): > 100 µM (inactive)
- GI50 (UO-31): > 100 µM (inactive)
- GI50 (SF-268): > 100 µM (inactive)
- GI50 (K562): > 100 µM (inactive)
- GI50 (M19-MEL): > 100 µM (inactive)
- GI50 (HL-60): > 100 µM (inactive)
- GI50 (HOP-18): > 100 µM (inactive)
- GI50 (SNB-19): > 100 µM (inactive)
- GI50 (HT-29): > 100 µM (inactive)
- GI50 (HOP-92): > 100 µM (inactive)
- GI50 (RPMI-8226): > 100 µM (inactive)
- GI50 (RXF 393): > 100 µM (inactive)
- GI50 (SW-620): > 100 µM (inactive)
- GI50 (MOLT-4): > 100 µM (inactive)
- GI50 (SN12C): > 100 µM (inactive)
- GI50 (M14): > 100 µM (inactive)
- GI50 (IGROV-1): > 100 µM (inactive)
- GI50 (A549): > 100 µM (inactive)
- GI50 (CCRF-CEM): > 100 µM (inactive)
- GI50 (SK-MEL-5): > 100 µM (inactive)
- GI50 (KM-20L2): > 100 µM (inactive)
- GI50 (TK-10): > 100 µM (inactive)
- GI50 (SF-539): > 100 µM (inactive)
- GI50 (786-0): > 100 µM (inactive)
- GI50 (UACC-62): > 100 µM (inactive)
- GI50 (OVCAR-3): > 100 µM (inactive)
- GI50 (NCI-H522): > 100 µM (inactive)
- GI50 (SK-MEL-28): > 100 µM (inactive)
- GI50 (CAKI-1): > 100 µM (inactive)
- GI50 (NCI-H23): > 100 µM (inactive)
- GI50 (COLO 205): > 100 µM (inactive)
- GI50 (OVCAR-4): > 100 µM (inactive)
- GI50 (HCT-116): > 100 µM (inactive)
- GI50 (HOP-62): > 100 µM (inactive)
- GI50 (SK-OV-3): > 100 µM (inactive)
- GI50 (KM12): > 100 µM (inactive)
- GI50 (Malme-3M): > 100 µM (inactive)
